Data as given in article PMC4965148 (PLoS ONE, 2016).
Where “and” joins values, the source holds several entries; their conditions need not be identical. Equal values may be shown once. Read-outs that look alike come from different tables or passages of the source.

Assays:
HEK293/Human α7 nAChR = HEK293/Human α7 nAChR (Homo sapiens, UniProt P36544); assay: Ca2+ flux (FLIPR) agonist assay; type: cell-based
Experimental: Functional activity was examined using Ca^2+-sensitive, dye-based, microfluorometric assays read on the FLIPR Tetra plate reader platform (Molecular Devices, CA, USA). Cells were plated in 384-well black, clear-bottomed Greiner poly-D-lysine coated plates at a density of ~25 K cells/well and incubated at 29°C for 48 h. Prior to assay, media contents were removed and cells incubated in assay buffer containing 5μM final Fluo-4 dye for 90 min. […] Test compounds were solubilized in DMSO and serially diluted in NUNC 384-well plates prior to addition of assay buffer (5.3 mM KCl + 140 mM NaCl + 20 mM Hepes + 25 mM CaCl2 + 1 mM MgCl2 + 10 μM atropine final concentration). Compounds diluted in assay buffer were added to the assay plate by the FLIPR and read for approximately 2 min. […] Offline transformation of concentration response data was done using a 4 parameter logistic fit using a Bristol-Myers Squibb proprietary informatics software suite.

α7 nAChR = target: T1, α7 nAChR (Mus musculus, UniProt P49582); assay: Ex vivo α7 nAChR occupancy ([3H]-A-585539); type: in vivo; conditions: mouse, sc, mice
T1 construct: One forebrain hemisphere from each animal was thawed and homogenized in assay buffer; from tissue; host or cells: forebrain homogenate of dosed male C57Bl/6 mice
T1 sequence (P49582 23-502): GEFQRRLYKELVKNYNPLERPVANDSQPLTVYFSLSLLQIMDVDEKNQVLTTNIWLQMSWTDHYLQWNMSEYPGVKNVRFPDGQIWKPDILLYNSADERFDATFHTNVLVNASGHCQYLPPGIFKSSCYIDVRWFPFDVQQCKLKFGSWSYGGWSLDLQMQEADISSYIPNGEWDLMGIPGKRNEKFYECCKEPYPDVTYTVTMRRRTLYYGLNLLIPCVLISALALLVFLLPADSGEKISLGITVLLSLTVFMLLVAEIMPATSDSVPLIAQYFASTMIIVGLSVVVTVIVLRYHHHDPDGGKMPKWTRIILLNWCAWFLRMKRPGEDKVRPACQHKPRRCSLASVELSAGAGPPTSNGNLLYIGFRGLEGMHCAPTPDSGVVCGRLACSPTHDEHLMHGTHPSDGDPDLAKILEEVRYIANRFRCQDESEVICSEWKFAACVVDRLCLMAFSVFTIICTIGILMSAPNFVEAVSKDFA
Experimental: Occupancy determinations were made either on completion of behavioral testing or in satellite groups of animals dosed in parallel with behavioral testing. At specified time points after dosing, the forebrain (for occupancy), the remaining hindbrain (for brain drug exposure) and plasma were collected, frozen in chilled isopentane and stored at -80°C until assayed. […] Homogenized tissue aliquots were frozen immediately and stored at -80°C. […] The filters were washed with ice-cold assay buffer, punched into a clear plate and 200 μl scintillation fluid added per well. Bound radioactivity was measured using a Wallac Microbeta liquid scintillation counter. Specific binding was calculated by subtracting the value of the non-specific binding from that of the total binding in each sample. The percent occupancy was calculated as [1 –(specific binding in drug treated mice/specific binding in vehicle treated mice)] x 100.

[1] = Plasma and brain concentrations after dosing; type: in vivo, mouse; conditions: for Kp: mouse, brain/plasma
Experimental: Occupancy determinations were made either on completion of behavioral testing or in satellite groups of animals dosed in parallel with behavioral testing. At specified time points after dosing, the forebrain (for occupancy), the remaining hindbrain (for brain drug exposure) and plasma were collected, frozen in chilled isopentane and stored at -80°C until assayed. […] Homogenized tissue aliquots were frozen immediately and stored at -80°C. […] Non-specific binding was defined by adding 25 μM MLA to wells containing tissues from vehicle-treated animals. […] The filters were washed with ice-cold assay buffer, punched into a clear plate and 200 μl scintillation fluid added per well. Bound radioactivity was measured using a Wallac Microbeta liquid scintillation counter. Specific binding was calculated by subtracting the value of the non-specific binding from that of the total binding in each sample. The percent occupancy was calculated as [1 –(specific binding in drug treated mice/specific binding in vehicle treated mice)] x 100.
In brief, 50 μL of the plasma sample was extracted by protein precipitation with 150 μL acetonitrile containing an internal standard and 5 μL of supernatant injected into the LC-MS/MS system. Analytes were separated by reversed phase chromatography and detection of each analyte was achieved through selected reaction monitoring mode of mass spectrometry.

C57Bl/6 mice = assay: Mouse 24 h novel object recognition; type: in vivo
Experimental: The procedure followed a 3 day protocol. On day 1 (habituation) individual mice were habituated to the testing chamber (a white PVC box 48 cm long x 38 cm wide x 20 cm high with brown linoleum flooring) for 15 min then returned to their home cage. On day 2 (training) individual mice were returned to the testing chamber containing 2 identical objects and allowed to explore. The training session lasted for up to 15 min or until the mouse explored the objects for a total of 60 s. A maximal trial duration of 15 min was used to accommodate mice that are slower to initiate exploration. On day 3 (testing) individual mice were returned to the testing chamber 24 h later containing 1 familiar object encountered in the previous training session and one novel object. The testing session lasted up to 10 min or until the mouse explored the objects for a total of 60 s. The objects used for these studies were made of duplex legos approximately 3 inches high x 1 inch wide; one object was a multicolored rectangle and the second object was a solid color rectangle with a short arm attached. The location of the objects was counterbalanced between animals but was consistent within animals so that only the object itself was novel on the test session. The familiar object used during the test session was the same object used during training and all objects were thoroughly cleaned between sessions and between subjects. Animal behavior was video recorded during both training and testing and the amount of time spent exploring the objects determined using Cleversys software. Object exploration was only scored when the animal’s nose was within 1 cm of the object. […] The vehicle was chosen for sc dosing to ensure that BMS-933043 was dosed as a solution and not a suspension. […] For each subject the % discrimination index (DI) was calculated for both the training and test session as follows: %DI training = (time exploring object 1—time exploring object 2)/(total time exploring object 1 + object 2) X 100; %DI testing = (time exploring novel object—time exploring familiar object)/(total time exploring novel + familiar object) X 100.

HEK293/Human 5-HT3A = target: T2, HEK293/Human 5-HT3A (Homo sapiens, UniProt P46098); assay: Ca2+ flux (FLIPR) 5-HT3A antagonist assay; type: cell-based
T2 construct: expressed in transfected cells; host or cells: HEK293 (made by Bristol-Myers Squibb)
T2 sequence (P46098 24-478): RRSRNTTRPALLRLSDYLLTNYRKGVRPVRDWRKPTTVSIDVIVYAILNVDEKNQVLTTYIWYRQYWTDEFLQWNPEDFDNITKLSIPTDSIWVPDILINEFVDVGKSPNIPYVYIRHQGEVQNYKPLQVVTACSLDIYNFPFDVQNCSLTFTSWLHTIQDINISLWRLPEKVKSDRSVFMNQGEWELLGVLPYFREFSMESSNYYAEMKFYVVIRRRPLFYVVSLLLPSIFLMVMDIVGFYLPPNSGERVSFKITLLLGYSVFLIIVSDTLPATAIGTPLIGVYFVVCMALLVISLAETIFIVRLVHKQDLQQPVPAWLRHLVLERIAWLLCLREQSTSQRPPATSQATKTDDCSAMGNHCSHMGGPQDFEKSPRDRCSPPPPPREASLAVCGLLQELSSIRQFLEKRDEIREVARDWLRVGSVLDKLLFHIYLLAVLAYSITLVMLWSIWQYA
Experimental: Functional activity was examined using Ca^2+-sensitive, dye-based, microfluorometric assays read on the FLIPR Tetra plate reader platform (Molecular Devices, CA, USA). Cells were plated in 384-well black, clear-bottomed Greiner poly-D-lysine coated plates at a density of ~25 K cells/well and incubated at 29°C for 48 h. Prior to assay, media contents were removed and cells incubated in assay buffer containing 5μM final Fluo-4 dye for 90 min. For nAChR assays, the dye-loading buffer was HBSS (#14175 Life Technologies) supplemented with 20 mM HEPES, 0.5 mM CaCl2, 1 mM MgCl2 and 10 μM atropine (final concentration). Test compounds were solubilized in DMSO and serially diluted in NUNC 384-well plates prior to addition of assay buffer (5.3 mM KCl + 140 mM NaCl + 20 mM Hepes + 25 mM CaCl2 + 1 mM MgCl2 + 10 μM atropine final concentration). Compounds diluted in assay buffer were added to the assay plate by the FLIPR and read for approximately 2 min. […] For 5-HT3A antagonist studies, the dye loading and compound diluent buffer was HBSS (#14025 Life Technologies) supplemented with 20 mM HEPES (final concentration) and the concentration of 5-HT used in the assay was 2 μM. Offline transformation of concentration response data was done using a 4 parameter logistic fit using a Bristol-Myers Squibb proprietary informatics software suite.

[2] = target: T3, HEK293/rat α7 nAChR cells (Rattus norvegicus, UniProt Q05941); assay: Whole cell voltage clamp electrophysiology; type: cell-based; conditions: n = 6
T3 construct: expressed in transfected cells
T3 sequence (Q05941 23-502): as the sequence (P49582 23-502) above, with T402A counted along it
Experimental: Whole-cell voltage clamp studies were conducted on HEK293/rat α7 or HEK293/human α7 nAChR cells. […] Atropine (1 μM) was included in the bathing solution. […] Cells were voltage clamped at a holding potential of -90 mV. Using the Dynaflow microfluidic perfusion system (Cellectricon; flow 26 μl/min) responses to a 300 ms application of ACh or α7 nAChR agonists were measured. Currents were filtered at 2 kHz and sampled at 10 kHz using an EPC-9 amplifier and HEKA Pulse/Patchmaster software. […] The peak current amplitude and net charge crossing the membrane (i.e. the area under the current response curve) induced by agonist application were measured using Clampfit (pClamp Suite) and normalized to the maximal response induced by ACh (3 mM ACh for peak current amplitude and 300 μM ACh for net charge).

Rat Brain α7 nAChR = Rat Brain α7 nAChR (Rattus norvegicus, UniProt Q05941); assay: [3H]-A-585539 filtration binding
Rat Brain α7 nAChR, sequence (Q05941 23-502): as the sequence (P49582 23-502) above, with T402A counted along it

[3] = set-up: method as in PMID 21337354; conditions: rodents; cited from earlier work
[4] = NS-6740 (10 mg/kg sc) 10 min prior to BMS-933043 (0.3 mg/kg sc)

HEK293/Human α7 nAChR, sequence (P36544 23-502): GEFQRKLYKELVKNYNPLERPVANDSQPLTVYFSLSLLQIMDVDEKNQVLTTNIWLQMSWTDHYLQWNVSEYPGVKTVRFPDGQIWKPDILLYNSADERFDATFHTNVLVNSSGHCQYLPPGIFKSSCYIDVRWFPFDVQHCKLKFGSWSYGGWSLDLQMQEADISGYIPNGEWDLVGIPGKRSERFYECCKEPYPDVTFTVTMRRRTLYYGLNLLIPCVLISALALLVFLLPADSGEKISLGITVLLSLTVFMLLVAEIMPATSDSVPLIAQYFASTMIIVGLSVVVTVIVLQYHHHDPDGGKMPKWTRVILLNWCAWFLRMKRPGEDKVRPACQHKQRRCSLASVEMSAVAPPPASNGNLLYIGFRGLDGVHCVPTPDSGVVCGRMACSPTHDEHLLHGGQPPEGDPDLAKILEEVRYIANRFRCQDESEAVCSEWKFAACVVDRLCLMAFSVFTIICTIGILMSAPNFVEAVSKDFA
HEK293/Human α7 nAChR, sequence (Q7Z5B4 29-369 partner): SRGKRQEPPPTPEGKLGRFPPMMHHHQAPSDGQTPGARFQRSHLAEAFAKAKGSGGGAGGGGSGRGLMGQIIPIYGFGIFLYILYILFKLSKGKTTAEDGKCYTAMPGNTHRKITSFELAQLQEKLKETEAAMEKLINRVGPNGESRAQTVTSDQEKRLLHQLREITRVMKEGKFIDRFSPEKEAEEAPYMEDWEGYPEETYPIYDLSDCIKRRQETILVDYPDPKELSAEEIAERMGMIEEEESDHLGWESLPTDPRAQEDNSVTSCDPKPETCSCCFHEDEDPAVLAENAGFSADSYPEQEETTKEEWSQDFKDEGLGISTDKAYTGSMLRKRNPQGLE

## O=C(c1ccc(-c2cccc(C(F)(F)F)c2)o1)N1CCN2CCC1CC2 [NS-6740, 4-[[5-[3-(trifluoromethyl)phenyl]-2-furanyl]carbonyl]-1,4-diazabicyclo[3.2.2]nonane]
HEK293/Human α7 nAChR
  α7 nAChR agonist activity: no α7 nAChR agonist activity
α7 nAChR; read-out: ex vivo α7 nAChR occupancy, NS-6740 3 mg/kg sc
  receptor occupancy at 3 mg/kg: 89%
α7 nAChR; read-out: ex vivo α7 nAChR occupancy, NS-6740 10 mg/kg sc
  receptor occupancy at 10 mg/kg: 98%
[1]; NS-6740 0.3 mg/kg sc, mice
  Brain Mean ± SD: 316 ± 43 nM
  Plasma Mean ± SD: 37 ± 2 nM
[1]; NS-6740 1 mg/kg sc, mice
  Brain Mean ± SD: 1,125 ± 66 nM
  Plasma Mean ± SD: 130 ± 7 nM
[1]; NS-6740 3 mg/kg sc, mice
  Brain Mean ± SD: 3,998 ± 273 nM
  Plasma Mean ± SD: 544 ± 214 nM
[1]; NS-6740 10 mg/kg sc, mice
  Brain Mean ± SD: 17,725 ± 1,928 nM
  Plasma Mean ± SD: 2,083 ± 426 nM
[1]; NS-6740 0.3 mg/kg sc, mice, read-out: Brain/Plasma Ratio
  Kp: 8.54
[1]; NS-6740 1 mg/kg sc, mice, read-out: Brain/Plasma Ratio
  Kp: 8.65
[1]; NS-6740 3 mg/kg sc, mice, read-out: Brain/Plasma Ratio
  Kp: 7.35
[1]; NS-6740 10 mg/kg sc, mice, read-out: Brain/Plasma Ratio
  Kp: 8.51
[1]; NS-6740, mice sc, read-out: average brain/plasma ratio
  Kp: > 8
C57Bl/6 mice; 3 or 10 mg/kg sc
  24 h recognition memory after NS-6740 alone: did not show improved 24 h recognition memory
C57Bl/6 mice; NS-6740 10 mg/kg sc
  effect of pretreatment on BMS-933043 (0.3 mg/kg, sc) improved discrimination index: abolished the improved discrimination index
C57Bl/6 mice; [4]
  % Discrimination Index (DI) Testing (day 3) Mean ± SEM: 3.83 ± 4.25%
  % Discrimination Index (DI) Training (day 2) Mean ± SEM: -4.82 ± 7.09%
C57Bl/6 mice; NS-6740 (10 mg/kg sc)/Vehicle
  % Discrimination Index (DI) Testing (day 3) Mean ± SEM: -1.02 ± 4.40%
  % Discrimination Index (DI) Training (day 2) Mean ± SEM: 6.43 ± 5.54%
HEK293/Human 5-HT3A; FLIPR, individual determinations, read-out: Human 5-HT3A IC50 values (individual)
  IC50: 6.21 µM and 5.69 µM and 5.32 µM and 5.91 µM and 2.39 µM and 3.11 µM and 4.7 µM and 5.68 µM and 4.43 µM
HEK293/Human 5-HT3A; HEK293/Human 5-HT3A Mean ± SD IC50, Ca2+ flux (FLIPR), antagonism of 2 μM 5-HT
  IC50: 4.83 µM
[2]; IC50 for inhibition of BMS-933043 (10 μM) net charge crossing the membrane
  IC50: 0.255 µM
[2]; IC50 for inhibition of BMS-933043 (10 μM) peak current response
  IC50: 0.283 ± 0.033 µM
Rat Brain α7 nAChR; displacement of [3H]-A-585539, read-out: Rat Brain α7 nAChR Mean ± SD Ki
  Ki: 0.00285 ± 0.00044 µM
Rat Brain α7 nAChR; individual determinations, read-out: Rat Brain α7 nAChR Ki (individual)
  Ki: 0.00245 µM and 0.00278 µM and 0.00333 µM

## CCN1C[C@]2(COC(=O)c3ccccc3N3C(=O)C[C@H](C)C3=O)CC[C@H](OC)[C@@]34[C@@H]5C[C@H]6[C@H](OC)[C@@H]5[C@](O)(C[C@@H]6OC)[C@@](O)([C@@H](OC)[C@H]23)[C@@H]14 [MLA, methyllycaconitine]
[3]
  brain/plasma: 0.06–0.09
